Measurements reported in patent US5110815A, “5-amino-5,6,7,8-tetrahydroquinolines and related compounds and pharmaceutical use” (Hoechst-Roussel Pharmaceuticals Inc., priority 1990, dated 1992).
Counter-ions that a name gives are not always drawn.

Columns and labels:
[1] = tested on: scopolamine induced memory deficits; test: dark avoidance assay (reversal of scopolamine induced memory deficit); format: in vivo, male CFW mice; settings: sc, scopolamine 3.0 mg/kg sc
Source text: The 5-amino-5,6,7,8-tetrahydroquinolines and related compounds of the present invention are useful as agents for the relief of memory dysfunction, particularly dysfunctions associated with decreased cholinergic activity such as those found in Alzheimer's disease. […] In this assay, three groups of 15 male CFW mice were used, a vehicle/vehicle control group, a scopolamine/vehicle group, and a scopolamine/drug group. Thirty minutes prior to training, the vehicle/vehicle control group received normal saline subcutaneously, and the scopolamine/vehicle and scopolamine/drug groups received scopolamine subcutaneously (3.0 mg/kg, administered as scopolamine hydrobromide). Five minutes prior to training, the vehicle/vehicle control and scopolamine/vehicle groups received distilled water and the scopolamine/drug group received the test compound in distilled water.
The training/testing apparatus consisted of a plexiglass box approximately 48 cm long, 30 cm high and tapering from 26 cm wide at the top to 3 cm wide at the bottom. The interior of the box was divided equally by a vertical barrier into a light compartment (illuminated by 25-watt reflector lamp suspended 30 cm from the floor) and a dark compartment (covered). There was a hole at the bottom of the barrier 2.5 cm wide and 6 cm tall and a trap door which could be dropped to prevent an animal from passing between the two compartments. A Coulbourn Instruments small animal shocker was attached to two metal plates which ran the entire length of the apparatus, and a photocell was placed in the dark compartment 7.5 cm from the vertical barrier and 2 cm off the floor. The behavioral session was controlled by PDP 11/34 minicomputer.
At the end of the pretreatment interval, an animal was placed in the light chamber directly under the light fixture, facing away from the door to the dark chamber. The apparatus was then covered and the system activated. If the mouse passed through the barrier to the dark compartment and broke the photocell beam within 180 seconds, the trap door dropped to block escape to the light compartment and an electric shock was administered at an intensity of 0.4 milliamps for three seconds. The animal was then immediately removed from the dark compartment and placed in its home cage. […] The latency in seconds for each mouse was recorded.
The test day latency in seconds for each animal was recorded and the animals were then discarded.
The high degree of variability (due to season of the year, housing conditions, and handling) found in one trial passive avoidance paradigm is well known. To control for this fact, individual cutoff (CO) values were determined for each test, compensating for interest variability. […] Thus, the CO value was defined as the second highest latency time in the control group to more accurately reflect the 1/15 expected control responders in each test group. Experiments with a variety of standards repeated under a number of environmental conditions led to the development of the following empirical criteria: for a valid test, the CO value had to be less than 120 sec and the vehicle/vehicle control group had to have at least 5/15 animals with latencies greater than CO. For a compound to be considered active the scopolamine/compound group had to have at least 3/15 mice with latencies greater than CO.
The results of the dark avoidance test are expressed as the number of animals per group (%) in which this scopolamine induced memory deficit is blocked as measured by an increase in the latency period.

[2] = target: T1, Acetylcholinesterase (Rattus norvegicus, UniProt P37136); test: in vitro inhibition of acetylcholinesterase activity (modified Ellman assay, rat corpora striata homogenate); format: biochemical, Male Wistar rats; settings: acetylthiocholine 5 millimolar final, pH 7.2, 10 min preincubation at 37° C
T1 construct: corpora strita dissected free, weighed and homogenized in 19 volumes; from tissue; host or cells: corpora striata of male Wistar rats, crude homogenate in 0.05 M phosphate buffer pH 7.2
Description: In this assay, a modification of a test described by G. L. Ellman, et al., Biochem. Pharmacol., 7, 88 (1961), the following reagents are prepared and employed:
1. 0.05M Phosphate Buffer (pH 7.2)
A solution of monobasic sodium phosphate monhydrate (6.85 g) in distilled water (100 ml) is added to a solution of dibasic sodium phosphate heptahydrate (13.4 g) and distilled water (100 ml) until a pH of 7.2 was attained. The solution was diluted 1 to 10 with distilled water.
The 0.05M Phosphate Buffer (pH 7.2) was added to acetylthiocholine (198 mg) to a total volume of 100 ml, i.e., a quantity sufficient (gs) to 100 ml.
3. 5,5-Dithiobisnitrobenzoic Acid in Buffer
The 0.05M Phosphate Buffer (pH 7.2) was added to 5,5-dithiobisnitrobenzoic acid to a total volume of 100 ml, i.e., a quantity sufficient (gs) to 100 ml.
4. Stock Solution of Drug
A 2 millimolar stock solution of the test drug is prepared in a quantity sufficient of a suitable solvent, either acetic acid or dimethyl sulfoxide to volume with 5,5-Dithiobisnitrobenzene Acid in Buffer. Stock Solution of Drug is serially diluted (1:10) so that the final cuvette concentration is 10^-4 molar.
Male Wistar rats are decapitated, brains rapidly removed, corpora strita dissected free, weighed and homogenized in 19 volumes (approximately 7 mg potein/ml) of 0.05M phosphate Buffer (pH 7.2) using a Potter-Elvehjem homogenizer. A 25 μl aliquot of this suspension is added to 1 ml of the vehicle or various concentrations of the test drug and preincubated for 10 minutes at 37° C. Enzyme activity is measured with a Beckman DU-50 spectrophotometer with the following software and instrument settings:
1. Kinetics Soft-Pac™ Module #598273;
6. Cuvettes--2 ml cuvettes using auto 6--sampler;
7. Blank--1 for each substrate concentration;
8. Interval time--15 seconds (15 or 30 seconds for kinetics);
9. Total time--5 minutes (5 or 10 minutes for kinetics);
13. Results--yes (gives slope); and
Reagents are added to the blank and sample cuvettes as follows:
Blank values are determined for each run to control for non-enzymatic hydrolysis of substrate and these values are automatically subtracted by the Kindata program available on kinetics soft-pac module. This program also calculates the rate of absorbance change for each cuvette.
5,5-Dithiobisnitrobenzoic Acid concentration is 0.5 millimolar yielding 0.25 millimolar final concentration. [formula]

T1 sequence (P37136 32-614): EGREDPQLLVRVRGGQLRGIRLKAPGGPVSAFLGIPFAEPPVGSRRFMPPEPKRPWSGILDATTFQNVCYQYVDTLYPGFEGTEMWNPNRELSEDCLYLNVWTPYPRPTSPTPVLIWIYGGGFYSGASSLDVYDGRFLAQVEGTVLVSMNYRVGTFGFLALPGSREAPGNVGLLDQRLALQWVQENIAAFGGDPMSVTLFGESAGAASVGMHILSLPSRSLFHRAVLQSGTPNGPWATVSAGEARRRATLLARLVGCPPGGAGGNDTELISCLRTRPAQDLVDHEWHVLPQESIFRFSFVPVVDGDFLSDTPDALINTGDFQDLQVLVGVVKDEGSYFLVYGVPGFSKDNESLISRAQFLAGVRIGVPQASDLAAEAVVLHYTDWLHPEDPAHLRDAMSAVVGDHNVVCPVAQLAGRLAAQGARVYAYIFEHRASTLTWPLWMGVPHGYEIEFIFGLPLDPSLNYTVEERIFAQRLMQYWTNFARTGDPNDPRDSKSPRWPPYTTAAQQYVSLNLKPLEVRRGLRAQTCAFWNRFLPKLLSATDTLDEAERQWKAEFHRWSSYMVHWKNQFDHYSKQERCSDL

Cl.Cl.Cn1c2c(ccc1=O)C(NCCc1ccccc1)CCC2.O (stereo not shown) [5,6,7,8-Tetrahydro-1-methyl-5-[(2-phenylethyl)amino]-2(1H)-quinolinone dihydrochloride monohydrate]
Percent of Animals with Scopolamine Induced Memory Deficit Reversal ([1]; dose 1.0 mg/kg): 33%

CCCn1c2c(ccc1=O)C(NCCc1ccccc1)CCC2 (stereo not shown) [5,6,7,8-Tetrahydro-5-[(2-phenylethyl)amino]-1-propyl-2(1H)-quinolinone fumarate]
IC50 [2]: 3.1 µM

COc1ccc(CCNC2CCCc3c2ccc(=O)n3C)cc1 (stereo not shown) [5,6,7,8-Tetrahydro-5-[[2-(4-methoxyphenyl)ethyl]amino]-1-methyl-2(1H)-quinolinone]
Percent of Animals with Scopolamine Induced Memory Deficit Reversal ([1]; dose 0.3 mg/kg): 27%
IC50 [2]: 9.6 µM

Cn1c2c(ccc1=O)C(NCCc1ccc(Cl)c(Cl)c1)CCC2 (stereo not shown) [5-[[2-(3,4-Dichlorophenyl)ethyl]amino]-5,6,7,8-tetrahydro-1-methyl-2(1H)-quinolinone]
Percent of Animals with Scopolamine Induced Memory Deficit Reversal ([1]; dose 1.0 mg/kg): 21%
IC50 [2]: 2.9 µM

Cn1c2c(ccc1=O)C(NCCc1ccc(Cl)cc1)CCC2 (stereo not shown) [5-[[2-(4-Chlorophenyl)ethyl]amino]-5,6,7,8-tetrahydro-1-methyl-2(1H)-quinolinone]
IC50 [2]: 6.6 µM

CC(=O)NC1(C)CCCc2[nH]c(=O)ccc21 (stereo not shown) [N-(1,2,5,6,7,8-Hexahydro-5-methyl-2-oxo-5-quinolinyl)acetamide]
Percent of Animals with Scopolamine Induced Memory Deficit Reversal ([1]; dose 0.16 mg/kg): 20%

CC(=O)N(OCc1ccccc1)C1CCCc2nc(OCc3ccccc3)ccc21.Cl (stereo not shown) [N-(Phenylmethoxy)-N-[5,6,7,8-tetrahydro-2-(phenylmethoxy)-5-quinolinyl]acetamide hydrochloride]
Percent of Animals with Scopolamine Induced Memory Deficit Reversal ([1]; dose 1.0 mg/kg): 20%

CNC(=O)Oc1ccc2c(c1)[C@]1(C)CCN(C)[C@@H]1N2C [physostigmine, reference compound]
Percent of Animals with Scopolamine Induced Memory Deficit Reversal ([1]; dose 0.31 mg/kg): 20%
